“And” between values parts separate entries of the source, which are not always exact repeats. Equal values may be shown once.
Key:
minipigs = experiment: Cardiovascular safety in anesthetized minipigs, escalating 15-minute IV infusions; type: in vivo, minipig
Description: Animals were administered morphine (2 mg/kg subcutaneously) prior to induction of anesthesia. […] Animals were placed on a heating pad set to maintain the animal's body temperature at approximately 37° C. Body temperature was monitored throughout the experiment via a rectal thermometer or via the Swan Ganz (thermodilution catheter) once implanted. Animals were intubated and placed on a ventilator supplemented with oxygen to maintain oxygenation within the normal physiological range. The animals were mechanically ventilated at a rate of 11-13 breaths/minute and a peak inspiratory pressure of 18 cm H2O. The following parameters were regularly monitored in order to ensure proper ventilation of the animals but are not reported: SpO2, inspiratory and expiratory CO2, inspiratory O2 and respiratory rate.
(§1) A Swan Ganz (thermodilution catheter) was inserted into the right femoral vein via phlebotomy and advanced into the pulmonary artery for cardiac output measurements. A catheter was inserted in the left femoral artery via an arteriotomy for blood gas determination. Another catheter was inserted in the left femoral vein for blood collection for toxicokinetic evaluation. Finally, an incision was also performed on the left side of the neck to expose the left carotid artery and an electronic dual pressure sensor catheter (Millar) was placed via arteriotomy and advanced into the left ventricle. The catheter was positioned to simultaneously collect left ventricle blood pressure measurements as well as aortic pressure. In addition, a temporary catheter was placed in any of the cephalic veins for administration of Lactated Ringers at 10 mL/kg/hr throughout the course of the experiment.
(§2) Following surgical preparation, hemodynamic and electrocardiographic parameters were allowed to stabilize for at least 15 minutes. The vehicle control and test article were then administered, and hemodynamic, electrocardiographic, histamine and PK parameters were monitored.

[1] = Plasma concentration in primate cardiovascular safety study; type: in vivo, Cynomolgus monkey
Description: as §1
as §2, with “electrocardiographic” for “electrocardiographic, histamine and PK”, “monitored. Histamine and plasma PK data was obtained. […]” for “monitored.”

[2] = Plasma PK in Beagle dog after oral and IV administration; type: in vivo; parameters: AUC / CLs / Tmax / V/F (c): unit not given here; Cmax: unit: μg/mL
anesthetized dogs = experiment: Cardiovascular safety in anesthetized dogs with diphenhydramine pretreatment; type: in vivo, dog; conditions: diphenhydramine pre-treated animals
Description: (§3) Dogs were administered morphine (2 mg/kg subcutaneously) approximately 10-19 minutes prior to administration of anesthesia. Dogs were anesthetized with 1% α-chloralose (100 mg/kg intravenous), followed by a constant infusion of α-chloralose (35-75 mg/kg/hr, IV). Two healthy female dogs were administered escalating doses of sulcardine sulfate intravenously over 15 minutes in an acetate buffer system at dose levels of 10, 30 and 90 mg/kg with dose administrations separated by 60 minutes. Another set of two dogs received test article after pre-treatment with diphenhydramine (1 mg/kg administered 30 minutes prior to start of test article infusion). Following drug administration, dogs were evaluated for ventricular, pulmonary and peripheral hemodynamic changes using Swanz Ganz and femoral catheters as well as by monitoring of blood oxygen saturation, test article blood level, body temperature, blood biochemistry, hematology, ECG, and histamine levels.
Group 2 Animals: Sulcardine sulfate at 10, 30 and 90 mg/kg with diphenhydramine (1 mg/kg) administered approximately 30 minutes before treatment with 10 mg/kg sulcardine sulfate. Animals pre-treated with diphenhydramine (H1 antagonist) and dosed with sulcardine sulfate at 10 mg/kg, presented hemodynamic changes which are mediated by H2 receptors. The changes resembled those noted in Group 1 animals, but were of a reduced magnitude. […]

[3] = Plasma concentration in dog cardiovascular safety study; type: in vivo
Description: as §3, with “90-mg/kg” for “90 mg/kg”, “minutes.” for “minutes. Another set of two dogs received test article after pre-treatment with diphenhydramine (1 mg/kg administered 30 minutes prior to start of test article infusion).”, “biochemistries, hematologies,” for “biochemistry, hematology,”, “histamine.” for “histamine levels.”
The mean peak sulcardine sulfate concentrations which peaked generally at the […] of each 15 minute infusion of sulcardine sulfate at 10, 30 and 90 mg/kg were 1.8, 11.2 and 100.1 μg/mL respectively which translated into approximately 4, 24.6 and 218 μM.

sulcardine sulfate
QTcC prolongation (minipigs; 10 mg/kg, Animal 1601C): 15%
PR interval increase (minipigs; 10 mg/kg, per animal): +38% and +10%
mortality (minipigs; 90 mg/kg, during or at completion of the 15-minute infusion): both animals succumbed
QTcC prolongation (minipigs; 30 and 90 mg/kg, both animals): up to 30%
histamine levels (minipigs; all doses): no appreciable increases
QRS durations (minipigs; starting at 10 mg/kg, both animals): dose dependent pattern of increasing QRS durations
mean peak plasma concentration ([1]; 90 mg/kg, 15 minute infusion): 845.5 ug/mL and 1,860.1 μM
Cmax ([1]; primates, read-out: Cmax that led to observed side effects such as hypotension): 21 µM
AUC ([2]; 8 mg/kg fast i.v push): 4.750 ± 1.778
CLs ([2]; 8 mg/kg fast i.v push): 1.850 ± 0.5911
K10 ([2]; 8 mg/kg fast i.v push): 0.7378 ± 0.2645 h⁻¹
K12 ([2]; 8 mg/kg fast i.v push): 1.982 ± 1.157 h⁻¹
K21 ([2]; 8 mg/kg fast i.v push): 0.5196 ± 0.3149 h⁻¹
T1/2α ([2]; 8 mg/kg fast i.v push): 0.2898 ± 0.2041 h
T1/2β ([2]; 8 mg/kg fast i.v push): 6.107 ± 1.537 h
V/F (c) ([2]; 8 mg/kg fast i.v push): 2.815 ± 1.714
AUC ([2]; 40 mg/kg po): 19.57 ± 2.414
CLs ([2]; 40 mg/kg po): 2.065 ± 0.2283
Cmax ([2]; 40 mg/kg po): 2.121 ± 0.4025
K12 ([2]; 40 mg/kg po): 0.1806 ± 0.0817 h⁻¹
K21 ([2]; 40 mg/kg po): 0.1778 ± 0.1295 h⁻¹
T1/2Ka ([2]; 40 mg/kg po): 33.98 ± 10.12 min
T1/2α ([2]; 40 mg/kg po): 1.636 ± 0.6148 h
T1/2β ([2]; 40 mg/kg po): 12.21 ± 3.412 h
V/F (c) ([2]; 40 mg/kg po): 12.08 ± 2.621
AUC ([2]; 80 mg/kg po): 83.53 ± 21.27
CLs ([2]; 80 mg/kg po): 1.013 ± 0.2956
Cmax ([2]; 80 mg/kg po): 8.849 ± 1.789
K10 ([2]; 80 mg/kg po): 0.1166 ± 0.0731 h⁻¹
K12 ([2]; 80 mg/kg po): -8.226 ± 16.60 h⁻¹
K21 ([2]; 80 mg/kg po): 10.10 ± 19.85 h⁻¹
T1/2Ka ([2]; 80 mg/kg po): 22.09 ± 14.66 min
T1/2α ([2]; 80 mg/kg po): 1.670 ± 1.068 h
T1/2β ([2]; 80 mg/kg po): 8.631 ± 2.294 h
Tmax ([2]; 80 mg/kg po): 1.407 ± 0.6461
V/F (c) ([2]; 80 mg/kg po): 16.60 ± 18.60
AUC ([2]; 160 mg/kg po): 291.6 ± 29.13
CLs ([2]; 160 mg/kg po): 0.5527 ± 0.0533
Cmax ([2]; 160 mg/kg po): 19.10 ± 3.412
K10 ([2]; 160 mg/kg po): 0.0856 ± 0.0155 h⁻¹
K12 ([2]; 160 mg/kg po): -0.0620 ± 0.1371 h⁻¹
K21 ([2]; 160 mg/kg po): 1.474 ± 1.562 h⁻¹
T1/2Ka ([2]; 160 mg/kg po): 49.54 ± 31.7 min
T1/2α ([2]; 160 mg/kg po): 1.758 ± 1.790 h
T1/2β ([2]; 160 mg/kg po): 9.640 ± 1.532 h
Tmax ([2]; 160 mg/kg po): 2.700 ± 1.001
V/F (c) ([2]; 160 mg/kg po): 6.528 ± 0.6551
Cmax read from PK curve ([2]; dogs, IV 8 mg/kg): about 10 μg/mL
mortality (anesthetized dogs; 90 mg/kg, final 15-minute infusion): all animals succumbed
severity of tachycardia (anesthetized dogs; after completion of dosing at 30 mg/kg): above 200 % of baseline
mean peak plasma concentration ([3]; 90 mg/kg, 15 minute infusion): 100.1 μg/mL and ~218 μM
Cmax ([3]; dogs, read-out: Cmax that led to observed side effects such as hypotension): 25 µM
